Assay results reported in ChEMBL document CHEMBL1201862, “PubChem BioAssay data set” (2004).
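Interpolation was linear, between the two tested concentrations surrounding the appropriate level; five concentrations were tested over 48 hours in 96-well plates. GI50: concentration for 50% inhibition of growth.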 Calls of active or inactive are those of the source. Cut-off read from the data, not from the text of the source: active = GI50 up to about 1.1 µM and inactive = higher.

What was measured:
Experiment in all cases: NCI tumour cell line growth inhibition, 48 h
A549 = system: A549
HCT-116 = system: HCT-116
HCT-15 = system: HCT-15
HOP-62 = system: HOP-62
LOX IMVI = system: LOX IMVI
MDA-MB-231 = system: MDA-MB-231
Malme-3M = system: Malme-3M
NCI-H226 = system: NCI-H226
NCI-H460 = system: NCI-H460
OVCAR-3 = system: OVCAR-3
PC-3 = system: PC-3
RPMI-8226 = system: RPMI-8226
SF-268 = system: SF-268
SK-MEL-28 = system: SK-MEL-28
SK-MEL-2 = system: SK-MEL-2
SK-MEL-5 = system: SK-MEL-5
SNB-19 = system: SNB-19
SW-620 = system: SW-620
TK-10 = system: TK-10
U-251 = system: U-251

SMILES	GI50 (A549)	GI50 (HCT-116)	GI50 (HCT-15)	GI50 (HOP-62)	GI50 (LOX IMVI)	GI50 (MDA-MB-231)	GI50 (Malme-3M)	GI50 (NCI-H226)	GI50 (NCI-H460)	GI50 (OVCAR-3)	GI50 (PC-3)	GI50 (RPMI-8226)	GI50 (SF-268)	GI50 (SK-MEL-28)	GI50 (SK-MEL-2)	GI50 (SK-MEL-5)	GI50 (SNB-19)	GI50 (SW-620)	GI50 (TK-10)	GI50 (U-251)
CCOC(=O)CCC(NC(=O)c1ccc(Nc2nc3cc(C(F)(F)F)ccc3nc2-c2ccccc2)cc1)C(=O)OCC (stereo not given)	> 100 µM (inactive)	26.4 µM (inactive)	24.7 µM	> 100 µM (inactive)	19.8 µM (inactive)	20.3 µM (inactive)	28.2 µM (inactive)	20.7 µM (inactive)	24.4 µM (inactive)	> 100 µM (inactive)	> 100 µM (inactive)	24.7 µM (inactive)	22.3 µM (inactive)	26.5 µM (inactive)	> 100 µM (inactive)	18.6 µM (inactive)	21.5 µM (inactive)	30.5 µM (inactive)	19.6 µM (inactive)	25.3 µM (inactive)
OC1COC2CC(Nc3ccccn3)OC12 (stereo not given)	> 100 µM (inactive)	> 100 µM (inactive)	> 100 µM	> 100 µM (inactive)	> 100 µM (inactive)	> 100 µM (inactive)	> 100 µM (inactive)	> 100 µM (inactive)	> 100 µM (inactive)	> 100 µM (inactive)	> 100 µM (inactive)	> 100 µM (inactive)	> 100 µM (inactive)	> 100 µM (inactive)	> 100 µM (inactive)	> 100 µM (inactive)	> 100 µM (inactive)	> 100 µM (inactive)	> 100 µM (inactive)	> 100 µM (inactive)
CC(C)=CCC[C@@H](C)/C=C/C=C(\C)C(=O)CC[C@@H]1CC[N@+]2(C)CCCC[C@H]12	> 100 µM (inactive)	> 100 µM (inactive)	> 100 µM	> 100 µM (inactive)	35.2 µM (inactive)	> 100 µM (inactive)	79.8 µM (inactive)	4.47 µM (inactive)	> 100 µM (inactive)	32.9 µM (inactive)	31 µM (inactive)	70 µM (inactive)	71.1 µM (inactive)	> 100 µM (inactive)	> 100 µM (inactive)	> 100 µM (inactive)	31.3 µM (inactive)	> 100 µM (inactive)	> 100 µM (inactive)	23.9 µM (inactive)
COc1cc2nc(-c3ccccc3)cc(O)c2c(OC)c1OC	> 100 µM (inactive)	> 100 µM (inactive)	> 100 µM	> 100 µM (inactive)	> 100 µM (inactive)	61 µM (inactive)	> 100 µM (inactive)	> 100 µM (inactive)	> 100 µM (inactive)	> 100 µM (inactive)	> 100 µM (inactive)	> 100 µM (inactive)	> 100 µM (inactive)	> 100 µM (inactive)	> 100 µM (inactive)	> 100 µM (inactive)	> 100 µM (inactive)	> 100 µM (inactive)	> 100 µM (inactive)	> 100 µM (inactive)
COc1ccc2c(c1)/C(=C\c1c(Cl)n(-c3ccccc3)c3ccccc13)C(=O)N2	4.34 µM (inactive)	2.99 µM (inactive)	2.36 µM	12.2 µM (inactive)	6.44 µM (inactive)	13.4 µM (inactive)	2.83 µM (inactive)	2.28 µM (inactive)	5.07 µM (inactive)	2.25 µM (inactive)	7.23 µM (inactive)	1.38 µM (inactive)	2.85 µM (inactive)	9.31 µM (inactive)	6.73 µM (inactive)	4.34 µM (inactive)	3.67 µM (inactive)	4.75 µM (inactive)	15.5 µM (inactive)	4.19 µM (inactive)
